Data taken from ChEMBL document CHEMBL3351656, “Discovery of novel 2-[2-(3-hydroxy-pyridin-2-yl)-thiazol-4-yl]-acetamide derivatives as HIF prolyl 4-hydroxylase inhibitors; SAR, synthesis and modeling evaluation” (Bioorg Med Chem Lett, 2014).
Converted amounts (≈) assume the structure as drawn.

Test: Solubility of the compound at pH 7.4
Type: physicochemical
Conditions: buffer

Point of comparison: `N#Cc1cnc(-c2nc(CC(=O)N3CCCC3)cs2)c(O)c1`, solubility 108 µg/mL (≈ 342 µM). Against it:
- Cc1sc(-c2ncc(C#N)cc2O)nc1CC(=O)NCCc1ccccn1 — within 1.5-fold, 78.4 µg/mL (≈ 207 µM)
- N#Cc1cnc(-c2nc(CC(=O)NCc3ccccc3)cs2)c(O)c1 — 4.5-fold lower, 24.1 µg/mL (≈ 68.8 µM)
- N#Cc1cnc(-c2nc(CC(=O)NCC(=O)O)cs2)c(O)c1 — within 1.5-fold, 106 µg/mL (≈ 332 µM)
- CC(C)(NC(=O)Cc1csc(-c2ncc(C#N)cc2O)n1)C(=O)O — 3.7-fold lower, 28.9 µg/mL (≈ 83.4 µM)
- N#Cc1cnc(-c2nc(CC(=O)N[C@H](C(=O)O)c3ccccc3)cs2)c(O)c1 — higher, > 195 µg/mL
- N#Cc1cnc(-c2nc(CC(=O)N[C@@H](C(=O)O)c3ccccc3)cs2)c(O)c1 — higher, > 195 µg/mL
- N#Cc1cnc(-c2nc(CC(=O)N[C@@H](CO)c3ccccc3)cs2)c(O)c1 — higher, > 188 µg/mL
- N#Cc1cnc(-c2nc(CC(=O)N[C@H](CO)c3ccccc3)cs2)c(O)c1 — higher, > 188 µg/mL
- N#Cc1cnc(-c2nc(CC(=O)NCCc3ccccc3)cs2)c(O)c1 — 7.9-fold lower, 13.6 µg/mL (≈ 37.3 µM)
- N#Cc1cnc(-c2nc(CC(=O)NCCc3ccccn3)cs2)c(O)c1 — higher, > 181 µg/mL
- N#Cc1cnc(-c2nc(CC(=O)NCCc3ccccn3)c(-c3ccccc3)s2)c(O)c1 — within 1.5-fold, 117 µg/mL (≈ 265 µM)
- Cc1c(C#N)cnc(-c2nc(CC(=O)NCCc3ccccn3)cs2)c1O — 9.6-fold lower, 11.2 µg/mL (≈ 29.5 µM)
- Cc1sc(-c2ncc(C#N)c(C)c2O)nc1CC(=O)NCCc1ccccn1 — 17-fold lower, 6.4 µg/mL (≈ 16.3 µM)
- Cc1c(C#N)cnc(-c2nc(CC(=O)NCCc3ccccn3)c(-c3ccccc3)s2)c1O — 150-fold lower, 0.74 µg/mL (≈ 1.62 µM)
- CCNC(=O)Cc1nc(-c2ncc(C#N)c(C)c2O)sc1C — 7.8-fold lower, 13.9 µg/mL (≈ 43.9 µM)
- CCN(CC)CCNC(=O)Cc1csc(-c2ncc(C#N)c(C)c2O)n1 — higher, > 185 µg/mL
- CCN(CC)CCNC(=O)Cc1nc(-c2ncc(C#N)c(C)c2O)sc1C — within 1.5-fold, 85.9 µg/mL (≈ 222 µM)
